The supplement of paper PMC13380429

How the values were obtained:
Details in all cases: 72 h
U2OS [1] = experiment: relative viability EC50 (midpoint between 100% and the lowest measured viability); higher = less toxic
Caco-2 [2] = experiment: as above
Calu-3 [3] = experiment: as above
Vero E6 [4] = experiment: as above
HepG2 [5] = experiment: as above
U2OS [6] = experiment: drug sensitivity score (DSS) for viability; higher = more toxic; extreme values may be limits of the assay
Caco-2 [7] = experiment: as above
Calu-3 [8] = experiment: as above
Vero E6 [9] = experiment: as above
HepG2 [10] = experiment: as above
U2OS [11] = experiment: cell viability relative to DMSO; higher = less toxic
Caco-2 [12] = experiment: as above
Calu-3 [13] = experiment: as above
Vero E6 [14] = experiment: as above
HepG2 [15] = experiment: as above

| Structure (SMILES) | relative viability EC50 (U2OS [1]) | relative viability EC50 (Caco-2 [2]) | relative viability EC50 (Calu-3 [3]) | relative viability EC50 (Vero E6 [4]) | relative viability EC50 (HepG2 [5]) | drug sensitivity score (U2OS [6]) | drug sensitivity score (Caco-2 [7]) | drug sensitivity score (Calu-3 [8]) | drug sensitivity score (Vero E6 [9]) | drug sensitivity score (HepG2 [10]) | cell viability (U2OS [11]; 1 nM) | cell viability (U2OS [11]; 10 nM) | cell viability (U2OS [11]; 100 nM) | cell viability (U2OS [11]; 1000 nM) | cell viability (U2OS [11]; 10000 nM) | cell viability (Caco-2 [12]; 1 nM) | cell viability (Caco-2 [12]; 10 nM) | cell viability (Caco-2 [12]; 100 nM) | cell viability (Caco-2 [12]; 1000 nM) | cell viability (Caco-2 [12]; 10000 nM) | cell viability (Calu-3 [13]; 1 nM) | cell viability (Calu-3 [13]; 10 nM) | cell viability (Calu-3 [13]; 100 nM) | cell viability (Calu-3 [13]; 1000 nM) | cell viability (Calu-3 [13]; 10000 nM) | cell viability (Vero E6 [14]; 1 nM) | cell viability (Vero E6 [14]; 10 nM) | cell viability (Vero E6 [14]; 100 nM) | cell viability (Vero E6 [14]; 1000 nM) | cell viability (Vero E6 [14]; 10000 nM) | cell viability (HepG2 [15]; 1 nM) | cell viability (HepG2 [15]; 10 nM) | cell viability (HepG2 [15]; 100 nM) | cell viability (HepG2 [15]; 1000 nM) | cell viability (HepG2 [15]; 10000 nM) |
| --- | --- | --- | --- | --- | --- | --- | --- | --- | --- | --- | --- | --- | --- | --- | --- | --- | --- | --- | --- | --- | --- | --- | --- | --- | --- | --- | --- | --- | --- | --- | --- | --- | --- | --- | --- |
| CS(=O)(=O)c1ccc([C@@H](CC2CCCC2)C(=O)Nc2nccs2)cc1 [Ro-28-1675] | > 10 µM | > 10 µM | > 10 µM | > 10 µM | > 10 µM | 0 | 0 | 0 | 0 | 0 | 101% | 96.1% | 101% | 102% | 98.9% | 92% | 97.8% | 102% | 106% | 92.2% | 103% | 100% | 114% | 99.6% | 99.3% | 95.5% | 95.2% | 96.8% | 91.1% | 98.9% | 97.2% | 96.4% | 108% | 90.8% | 103% |
| C[C@H](N)Cn1ccc2cc(F)c(Cl)cc21 [Ro-60-0175] | > 10 µM | > 10 µM | > 10 µM | > 10 µM | > 10 µM | 0 | 0.6 | 0 | 0 | 0 | 96.5% | 106% | 96.9% | 104% | 93.3% | 94.9% | 90.9% | 101% | 95.8% | 85.2% | 93.7% | 92.3% | 87.4% | 95.6% | 87.2% | 104% | 98.4% | 100% | 95.3% | 96% | 99.5% | 101% | 106% | 99.8% | 103% |
| O=C(N/N=C/c1ccccc1O)c1ccccc1O [SCS] | 1.89 µM | 1.6 µM | 3.11 µM | 3.35 µM | 2.04 µM | 4.4 | 8.8 | 5 | 2.8 | 7.5 | 98.7% | 104% | 95.6% | 91.1% | 46.3% | 97% | 97.6% | 88.6% | 76.5% | 3.6% | 108% | 94.9% | 98.2% | 99.3% | 11.9% | 97.6% | 100% | 101% | 102% | 45.4% | 102% | 94.6% | 94.1% | 86.6% | 5.5% |
| Fc1ccc(-c2nc(-c3c(F)cccc3F)[nH]c2-c2ccncc2)cc1 [TA-01] | > 10 µM | > 10 µM | > 10 µM | > 10 µM | > 10 µM | 0 | 1.5 | 1.6 | 0 | 0 | 108% | 112% | 101% | 98.6% | 95.9% | 105% | 109% | 99.9% | 84.7% | 96.1% | 104% | 107% | 97.2% | 85.2% | 94.6% | 112% | 106% | 95% | 94.7% | 93.7% | 108% | 97.3% | 94.3% | 99.4% | 98.4% |
| O=[N+]([O-])c1c(Nc2cc(F)cc(Cl)c2)ccc2nonc12 [TC-S-7009] | > 10 µM | > 10 µM | > 10 µM | > 10 µM | > 10 µM | 0 | 0 | 0 | 0 | 0 | 100% | 106% | 97.9% | 105% | 95.9% | 99.2% | 96.3% | 97.2% | 95.9% | 92.9% | 102% | 98.1% | 104% | 106% | 104% | 102% | 102% | 96.4% | 99.5% | 95.8% | 93.1% | 103% | 95.3% | 85.7% | 94.5% |
| CCOC(=O)c1ccccc1OC(=O)CCCCCCCC(=O)Oc1ccccc1C(=O)OCC [TU-2100] | > 10 µM | > 10 µM | > 10 µM | > 10 µM | > 10 µM | 0 | 0 | 0 | 0 | 0 | 102% | 100% | 97.3% | 99.6% | 99.3% | 97.9% | 101% | 92.1% | 95.6% | 100% | 94.1% | 104% | 92.3% | 95.7% | 108% | 95.5% | 101% | 102% | 101% | 99.9% | 97.9% | 104% | 106% | 96.7% | 98.9% |
| NC(=O)c1cccc(-c2cccc(OC(=O)NC3CCCCC3)c2)c1 [URB597] | > 10 µM | > 10 µM | > 10 µM | > 10 µM | > 10 µM | 0 | 0 | 0 | 0 | 0 | 94% | 102% | 98.5% | 105% | 98.8% | 93.9% | 98.7% | 93.9% | 103% | 89.1% | 86.4% | 94.6% | 92.7% | 88.4% | 99.1% | 107% | 98.5% | 104% | 96.7% | 103% | 104% | 105% | 104% | 96.9% | 92.3% |
| CCC[C@H](NC(=O)/C(C#N)=C/c1cccc(Br)n1)c1ccccc1 [WP1130] | 2.74 µM | 2.43 µM | 3.94 µM | 2.98 µM | 3.18 µM | 6.3 | 5.5 | 4 | 5.7 | 5.5 | 95.7% | 108% | 97.5% | 94.6% | 0.9% | 106% | 103% | 93.2% | 93% | 21.3% | 100% | 97.1% | 90.7% | 118% | 10.8% | 101% | 100% | 100% | 97.6% | 3.5% | 99.8% | 105% | 101% | 100% | 0.8% |
